# In ChEMBL document CHEMBL5614424, “Natural Product-Inspired Discovery of Naphthoquinone-Furo-Piperidine Derivatives as Novel STAT3 Inhibitors for the Treatment of Triple-Negative Breast Cancer” (J Med Chem, 2024):
# pIC50: −log10 of the molar value. Peptide text beside a SMILES is read from it. * marks the point of attachment. Cbz = O=C(OCc1ccccc1)*; CH2F = FC*
# Legend:
# MDA-MB-468 [1] = test: Induction of apoptosis in human MDA-MB-468 cells assessed as early apoptotic cells at 10 uM measured after 24 hrs incubation by the annexin V/propidium iodide (PI) double staining assay (reference value: 2.36%); type: functional
# MDA-MB-468 [2] = test: Induction of apoptosis in human MDA-MB-468 cells assessed as late apoptotic cells at 10 uM measured after 24 hrs incubation by the annexin V/propidium iodide (PI) double staining assay (reference value: 4.33%); type: functional
# MDA-MB-231 [3] = test: Induction of apoptosis in human MDA-MB-231 cells assessed as late apoptotic cells at 10 uM measured after 24 hrs incubation by the annexin V/propidium iodide (PI) double staining assay (reference value: 3.08%); type: functional
# MDA-MB-231 [4] = test: Induction of apoptosis in human MDA-MB-231 cells assessed as early apoptotic cells at 10 uM measured after 24 hrs incubation by the annexin V/propidium iodide (PI) double staining assay (reference value: 2.37%); type: functional
# MDA-MB-231 [5] = test: Induction of apoptosis in human MDA-MB-231 cells assessed as early apoptotic cells at 5 uM measured after 24 hrs incubation by the annexin V/propidium iodide (PI) double staining assay (reference value: 2.37%); type: functional
# [6] = Antiproliferative activity against human MCF-10A cells assessed as cell viability incubated for 48 hrs measured after additional incubation with MTT; type: toxicity, cell-based
# MDA-MB-468 [7] = test: Induction of apoptosis in human MDA-MB-468 cells assessed as early apoptotic cells pretreated with Z-VAD-FMK at 5 uM measured after 24 hrs incubation by the annexin V/propidium iodide (PI) double staining assay (reference value: 2.36%); type: functional
# [8] = Toxicity in female BALB/c-nude mouse assessed as histological change in spleen at 15 to 30 mg/kg, ip once daily for 21 consecutive days by H and E staining based IHC analysis; type: organism-based; settings: in vivo, 504 h, dose 15-30 mg/kg, time 21 day
# [9] = Half life in male rat at 10 mg/kg, po measured upto 24 hrs by LC/MS/MS analysis; type: ADME, organism-based; settings: in vivo
# L02 = test: Antiproliferative activity against human L02 cells assessed as cell viability incubated for 48 hrs measured after additional incubation with MTT; type: functional, cell-based; settings: L02, 48 h
# [10] = AUC(0 to infinity) in male rat at 10 mg/kg, po measured upto 24 hrs by LC/MS/MS analysis; type: ADME, organism-based; settings: in vivo
# MDA-MB-231 [11] = test: In vivo antitumor activity against human MDA-MB-231 cells assessed as tumor growth inhibition at 15 mg/kg, ip once daily for 21 consecutive days relative to control; type: functional; settings: MDA-MB-231, 504 h, time 21 day, read-out: TGI
# [12] = AUC(0 to t) in male rat at 10 mg/kg, ip measured upto 24 hrs by LC/MS/MS analysis; type: ADME, organism-based; settings: in vivo
# [13] = Toxicity in female BALB/c-nude mouse assessed as histological change in lung at 15 to 30 mg/kg, ip once daily for 21 consecutive days by H and E staining based IHC analysis; type: organism-based; settings: in vivo, 504 h, dose 15-30 mg/kg, time 21 day
# [14] = AUC(0 to t) in male rat at 5 mg/kg, iv measured upto 24 hrs by LC/MS/MS analysis; type: ADME, organism-based; settings: in vivo
# MDA-MB-468 [15] = test: Antiproliferative activity against human MDA-MB-468 cells assessed as cell viability incubated for 48 hrs measured after additional incubation with MTT; type: functional, cell-based; settings: MDA-MB-468, 48 h
# MDA-MB-468 [16] = test: Induction of apoptosis in human MDA-MB-468 cells assessed as early apoptotic cells at 2.5 uM measured after 24 hrs incubation by the annexin V/propidium iodide (PI) double staining assay (reference value: 3.98%); type: functional
# [17] = AUC(0 to infinity) in male rat at 10 mg/kg, ip measured upto 24 hrs by LC/MS/MS analysis; type: ADME, organism-based; settings: in vivo
# MDA-MB-231 [18] = test: Induction of apoptosis in human MDA-MB-231 cells assessed as early apoptotic cells at 5 uM measured after 24 hrs incubation by the annexin V/propidium iodide (PI) double staining assay (reference value: 2.46%); type: functional
# MDA-MB-231 [19] = test: Induction of apoptosis in human MDA-MB-231 cells assessed as late apoptotic cells at 2.5 uM measured after 24 hrs incubation by the annexin V/propidium iodide (PI) double staining assay (reference value: 2.69%); type: functional
# MDA-MB-468 [20] = test: Induction of apoptosis in human MDA-MB-468 cells assessed as late apoptotic cells pretreated with Z-VAD-FMK at 5 uM measured after 24 hrs incubation by the annexin V/propidium iodide (PI) double staining assay (reference value: 4.33%); type: functional
# [21] = Cmax in male rat at 10 mg/kg, ip measured upto 24 hrs by LC/MS/MS analysis; type: ADME, organism-based; settings: in vivo
# MDA-MB-468 [22] = test: Induction of apoptosis in human MDA-MB-468 cells assessed as late apoptotic cells at 5 uM measured after 24 hrs incubation by the annexin V/propidium iodide (PI) double staining assay (reference value: 3.64%); type: functional
# [23] = Tmax in male rat at 10 mg/kg, ip measured upto 24 hrs by LC/MS/MS analysis; type: ADME, organism-based; settings: in vivo
# [24] = Cmax in male rat at 10 mg/kg, po measured upto 24 hrs by LC/MS/MS analysis; type: ADME, organism-based; settings: in vivo
# [25] = Toxicity in female BALB/c-nude mouse assessed as histological change in kidney at 15 to 30 mg/kg, ip once daily for 21 consecutive days by H and E staining based IHC analysis; type: organism-based; settings: in vivo, 504 h, dose 15-30 mg/kg, time 21 day
# MDA-MB-468 [26] = test: Induction of apoptosis in human MDA-MB-468 cells assessed as early apoptotic cells at 5 uM measured after 24 hrs incubation by the annexin V/propidium iodide (PI) double staining assay (reference value: 3.98%); type: functional
# MDA-MB-231 [27] = test: In vivo antitumor activity against human MDA-MB-231 cells assessed as tumor growth inhibition at 30 mg/kg, ip once daily for 21 consecutive days relative to control; type: functional; settings: MDA-MB-231, 504 h, time 21 day, read-out: TGI
# MDA-MB-468 [28] = test: Induction of apoptosis in human MDA-MB-468 cells assessed as late apoptotic cells at 2.5 uM measured after 24 hrs incubation by the annexin V/propidium iodide (PI) double staining assay (reference value: 3.64%); type: functional
# MDA-MB-231 [29] = test: Induction of apoptosis in human MDA-MB-231 cells assessed as early apoptotic cells pretreated with Z-VAD-FMK at 5 uM measured after 24 hrs incubation by the annexin V/propidium iodide (PI) double staining assay (reference value: 2.37%); type: functional
# MDA-MB-231 [30] = test: Induction of apoptosis in human MDA-MB-231 cells assessed as early apoptotic cells at 2.5 uM measured after 24 hrs incubation by the annexin V/propidium iodide (PI) double staining assay (reference value: 2.46%); type: functional
# [31] = AUC(0 to infinity) in male rat at 5 mg/kg, iv measured upto 24 hrs by LC/MS/MS analysis; type: ADME, organism-based; settings: in vivo
# MDA-MB-231 [32] = test: Induction of apoptosis in human MDA-MB-231 cells assessed as late apoptotic cells at 5 uM measured after 24 hrs incubation by the annexin V/propidium iodide (PI) double staining assay (reference value: 3.08%); type: functional
# [33] = Tmax in male rat at 10 mg/kg, po measured upto 24 hrs by LC/MS/MS analysis; type: ADME, organism-based; settings: in vivo
# [34] = Half life in male rat at 10 mg/kg, ip measured upto 24 hrs by LC/MS/MS analysis; type: ADME, organism-based; settings: in vivo
# [35] = AUC(0 to t) in male rat at 10 mg/kg, po measured upto 24 hrs by LC/MS/MS analysis; type: ADME, organism-based; settings: in vivo
# [36] = Toxicity in female BALB/c-nude mouse assessed as histological change in heart at 15 to 30 mg/kg, ip once daily for 21 consecutive days by H and E staining based IHC analysis; type: organism-based; settings: in vivo, 504 h, dose 15-30 mg/kg, time 21 day
# MDA-MB-231 [37] = test: Induction of apoptosis in human MDA-MB-231 cells assessed as late apoptotic cells at 5 uM measured after 24 hrs incubation by the annexin V/propidium iodide (PI) double staining assay (reference value: 2.69%); type: functional
# [38] = Toxicity in female BALB/c-nude mouse assessed as histological change in liver at 15 to 30 mg/kg, ip once daily for 21 consecutive days by H and E staining based IHC analysis; type: organism-based; settings: in vivo, 504 h, dose 15-30 mg/kg, time 21 day
# MDA-MB-231 [39] = test: Antiproliferative activity against human MDA-MB-231 cells assessed as cell viability incubated for 48 hrs measured after additional incubation with MTT; type: functional, cell-based; settings: MDA-MB-231, 48 h
# [40] = Half life in male rat at 5 mg/kg, iv measured upto 24 hrs by LC/MS/MS analysis; type: ADME, organism-based; settings: in vivo
# MDA-MB-468 [41] = test: Induction of apoptosis in human MDA-MB-468 cells assessed as late apoptotic cells at 5 uM measured after 24 hrs incubation by the annexin V/propidium iodide (PI) double staining assay (reference value: 4.33%); type: functional
# [42] = Cmax in male rat at 5 mg/kg, iv measured upto 24 hrs by LC/MS/MS analysis; type: ADME, organism-based; settings: in vivo
# MDA-MB-468 [43] = test: Induction of apoptosis in human MDA-MB-468 cells assessed as early apoptotic cells at 5 uM measured after 24 hrs incubation by the annexin V/propidium iodide (PI) double staining assay (reference value: 2.36%); type: functional
# [44] = Tmax in male rat at 5 mg/kg, iv measured upto 24 hrs by LC/MS/MS analysis; type: ADME, organism-based; settings: in vivo
# MDA-MB-231 [45] = test: Induction of apoptosis in human MDA-MB-231 cells assessed as late apoptotic cells pretreated with Z-VAD-FMK at 5 uM measured after 24 hrs incubation by the annexin V/propidium iodide (PI) double staining assay (reference value: 3.08%); type: functional
# [46] = Oral bioavailability in male rat at 10 mg/kg measured upto 24 hrs by LC/MS/MS analysis; type: ADME, organism-based; settings: in vivo
structure (smiles),measurement,setting,value
CC(C)[C@H](NC(=O)OCc1ccccc1)C(=O)N[C@@H](C)C(=O)N[C@@H](CC(=O)O)C(=O)CF (Cbz-Val-Ala-Asp-CH2F),Activity,MDA-MB-468 [1],5.02%
same,Activity,MDA-MB-468 [2],2.19%
same,Activity,MDA-MB-231 [3],2.63%
same,Activity,MDA-MB-231 [4],2.76%
CC(C)C[C@@H](CO)N1CCc2c(oc3c2C(=O)C(=O)c2ccccc2-3)C1,Activity,MDA-MB-231 [5],3.97%
same,IC50 at 48 h,[6],> 20 µM
same,Activity,MDA-MB-468 [7],11.06%
same,Activity,[8],Non-Toxic
same,half-life,[9],7.1 h
same,pIC50,L02,< 4.70
same,AUC(0-inf),[10],56.7 ng·h/mL
same,inhibition in vivo at 15 mg/kg,MDA-MB-231 [11],42.2%
same,AUC(0-t) at 24 h,[12],436 ng·h/mL
same,Activity,[13],Non-Toxic
same,AUC(0-t) at 24 h,[14],536 ng·h/mL
same,pIC50,MDA-MB-468 [15],5.12
same,Activity,MDA-MB-468 [16],3.86%
same,AUC(0-inf),[17],490 ng·h/mL
same,Activity,MDA-MB-231 [18],5.86%
same,Activity,MDA-MB-231 [19],3.48%
same,Activity,MDA-MB-468 [20],15.38%
same,Cmax,[21],232 ng/mL
same,Activity,MDA-MB-468 [22],19.37%
same,Tmax,[23],6 min
same,Cmax,[24],67.8 ng/mL
same,Activity,[25],Non-Toxic
same,Activity,MDA-MB-468 [26],16.47%
same,inhibition in vivo at 30 mg/kg,MDA-MB-231 [27],60.4%
same,Activity,MDA-MB-468 [28],4.6%
same,Activity,MDA-MB-231 [29],4.68%
same,Activity,MDA-MB-231 [30],3.35%
same,AUC(0-inf),[31],618 ng·h/mL
same,Activity,MDA-MB-231 [32],25.51%
same,Tmax,[33],0.2 h
same,half-life,[34],7.9 h
same,AUC(0-t) at 24 h,[35],55.1 ng·h/mL
same,Activity,[36],Non-Toxic
same,Activity,MDA-MB-231 [37],29.24%
same,Activity,[38],Non-Toxic
same,pIC50,MDA-MB-231 [39],5.69
same,half-life,[40],7.9 h
same,Activity,MDA-MB-468 [41],17.13%
same,Cmax,[42],348 ng/mL
same,Activity,MDA-MB-468 [43],22.31%
same,Tmax,[44],4.2 min
same,Activity,MDA-MB-231 [45],13.57%
same,bioavailability,[46],5.1%
